{"source": "patent US8252749B2", "about": "“Methods, kits, and compositions for generating new hair follicles and growing hair” (Follica, Inc., priority 2006, dated 2012)", "key": {"[1]": {"test_system": "new HF formation by EDIHN in wounded skin", "assay": "whole-mount EDIHN assay after excisional wounding of mice", "assay_type": "in vivo", "description": "Punch wound and excisional wound induction. The backs of 21-day-old mice were depilated as described for Example 1 and sterilized with alcohol, followed by 1% iodine solution. Punch wounds, 4 mm in diameter, were induced using a dermal biopsy punch, down to, but not through, the muscle fascia. Excisional wounds were full thickness and 1 cm in diameter; skin and panniculus carnosus was excised using fine surgical scissors.\nWhole mounting and immunofluorescence. HF whole mounts were obtained by incubating fresh skin with EDTA (20 mM in PBS) at 37° C. overnight, then separating the epidermis and dermis. Epidermis was then fixed in 10% formalin for 10 min, room temperature (RT). Dermis was fixed in acetone overnight, RT. After rinsing with PBS, whole mounts were stained with antibodies for immunohistochemistry (schematically depicted in FIG. 12) and were imaged using a Leica confocal microscope.\n21 day-old mice were wounded as described in previous Examples. Starting from day 11 after wounding, a time point corresponding to the point at which the wound had recently re-epithelialized, 10 mL of 1 mg/ml EGF was injected into the wound bed. EGF was injected once per day after this point for a total of 5 days. Three days later, the skin was collected, and whole-mount EDIHN assays were performed. […] In addition, whole mounts of control and treated skin were analyzed with anti-K17 antibody immunostaining. […] (FIGS. 25 C-D).\nIn an additional experiment, recombinant EGF (1 microgram (mcg)/microliter (mcl)) was injected at days 11, 13 and 15 after wounding. Skin was collected at 18 days after wounding and stained for K17 and alkaline phosphotase.\nTo determine the effect of administration of EGF receptor inhibitors on DIHN, the inhibitor AG1478 (150 μM in 10 μL volume) was administered as a single injection 11 days after incisional wounding (1 cm2) to the middle of the wound near the skin surface. […] Left panel: epidermis stained for K17, with three large hair follicles next to each other. Right panel: dermis stained for AP with large coalescing dermal papilla areas."}, "[2]": {"test_system": "hair re-growth in abraded areas", "assay": "hair re-growth after epidermal abrasion of mice", "assay_type": "in vivo", "details": "epidermis of mice abraded, then recombinant EGF administered", "description": "Depilation and epidermal abrasion. Mice were anesthetized with an injection of sodium pentobarbital before the hair on the back was clipped and depilated with Nair (Carter-Wallace, New York, N.Y.), then epidermis was removed using a rotating felt wheel as described by Argyris T, J. Invest. Dermatol. 75: 360 (1980). After scrubbing with 70% ethanol and drying under an incandescent lamp, the basal and supra-basal layers in an area of 1.5 cm^2/cm of the inter-follicular epidermis were removed by careful abrasion with a felt wheel mounted on a Dremel Moto-tool (Racine, Wis.). After abrasion, the skin was shiny and smooth, and there was no blood. One day later, the abraded area was covered by a fibrin crust, which fell off after 3-7 days, exposing the newly regenerated epidermis. A group of control mice was sacrificed immediately after abrasion to confirm microscopically the complete removal of the interfollicular epidermis.\nHair-bearing regions of the epidermis of mice is abraded, as described in Example 1, then administering recombinant EGF, as described in Example 1."}}, "note": "Entries after “also recorded” stand apart in the source; their conditions may differ."}
{"molecule": "COc1cc2ncnc(Nc3cccc(Cl)c3)c2cc1OC", "note": "[AG1478, reference compound]", "values": [{"measurement": "generation of hair follicles (number and size) compared with control mice that were wounded only", "setting": "[1]; 150 μM in 10 μL, single injection 11 days after excisional wounding (1 cm diameter), middle of the wound", "result": "more and larger hair follicles; also recorded: more and larger HF"}]}
{"molecule": "EGF: epidermal growth factor, recombinant, injected into the wound bed", "values": [{"measurement": "HF formation as assessed by gross morphology", "setting": "[1]; 21 day-old mice, 10 mL of 1 mg/ml EGF injected into wound bed once per day for 5 days from day 11 after wounding, skin collected three days later", "result": "prevented HF formation"}, {"measurement": "new HF formation, whole mounts with anti-K17 antibody immunostaining", "setting": "[1]; 21 day-old mice, EGF injected into wound bed once per day for 5 days from day 11 after wounding, n=4 vs control n=2", "result": "no new HF formation; also recorded: inhibits HF formation"}, {"measurement": "EDIHN, skin stained for K17 and alkaline phosphotase", "setting": "[1]; recombinant EGF 1 mcg/mcl injected at days 11, 13 and 15 after wounding, skin collected at 18 days", "result": "inhibited EDIHN"}, {"measurement": "hair re-growth in the abraded areas", "setting": "[2]", "result": "prevents hair re-growth"}]}
